Experiment [1] deals with T1, HDAC1 (Homo sapiens, UniProt Q13547).
T1 construct: made in house
Description: HDAC1 assay (Fluor-de-Lys fluorescent deacetylase assay). It counts as biochemical. The following applies: read-out: hHDAC IC50. As for the experimental part: The HDAC1 assay is used to quantify the histone deacetylase (HDAC) activity. The assay is performed in 384 well microtiter plates by pre-incubating serial dilutions of the compounds with a fixed concentration of HeLa nuclear extract or purified HDAC1 and then adding an acetylated lysine-containing substrate/developer that fluoresces upon deacetylation.
Reagents of the HDAC Fluorescent Activity Assay are purchased from BioMol Research Laboratories (Plymouth Meeting, Pa.) and feature the Fluor-de-Lys™ Substrate/Developer System.
TSA Stock: TSA is provided as a 10 mM stock solution in 100% dimethylsulfoxide (DMSO). […] The final concentration in the assay is 20 uM.
3 uM [final] TSA to this solution increases its ability to stop the reaction.
HDAC1 Working Solution: The HDAC1 enzyme is diluted in assay buffer prior to each use from a fresh aliquot of enzyme. The final concentration in the assay is 1-2 nM.
Compounds: Test compounds are directly transferred from a 100% DMSO solution into assay plates by spotting nanoliters of solutions by an acoustic dispenser (ATS-100, EDC biosystems, US).
HeLa cells transiently transfected with pCDNA3-HDAC1-FLAG are grown to 80% confluence on 10 cm culture dishes in DMEM, 10% Fetal bovine serum supplemented with antibiotics and glutamine. Cells are washed with 10 ml cold PBS and scraped into 2 ml of PBS. Cells are centrifuged for 5 minutes at 800×g at 4° C., washed with 30 ml PBS and resuspended in 10 ml PBS, counted, re-centrifuged and frozen at −80° C.
The frozen cell pellet is re-suspended in 1 ml of hypotonic lysis buffer (LB: 20 mM Hepes pH7.9, 0.25 mM EDTA, 10% glycerol) containing COMPLETE protease inhibitor and incubated on ice for 15 minutes, followed by homogenization on a 2-ml DounceB homogenizer (25 strokes). 150 mM KCl and 0.5% NP-40 are added to the homogenate and the solution is sonicated twice for 30 seconds (output5/6, duty cycle 90) and incubated for 1 hour at 4° C. After a 30 minutes centrifugation at 12000 rpm and 4° C. the supernatant (soluble extract) is collected and protein concentration is determined using the BIORAD assay.
Anti-FLAG M2 affinity resin (Sigma) is washed three times with TBS and twice with LB. 10 μl of the LB-washed resin/mg of protein (2-3 ug of Flagged-HDAC1) are added to the soluble extract (1 mL) and incubated overnight at 4° C. with gentle mixing. The resin is then collected by centrifugation, washed once with LB, twice with LB+0.1% NP40 and twice with elution buffer (50 mM Hepes pH 7.4, 5% glycerol, 100 mM KCl, 0.01% Triton X-100).
The concentration of purified HDAC is determined by Western blot analysis.

In experiment [2] the test system is human γ-globin promoter (EGFP reporter) in K562 cells. As to the kind of experiment: HbF activation assay on K562 (EGFP/RFP reporter model system for screening of inducers of fetal hemoglobin). It counts as cell-based. The following applies: 60 hours. The text has this:
In order to test several compounds, a model system was produced based on previous findings present in the literature. The K562 erythroid-like cell lines, isolated and characterized by Lozzio & Lozzio (Blood, 45(3), pp 321-334) from a patient with chronic myelogenous leukemia in blast crisis, have been extensively employed as a useful in vitro model to study the molecular mechanism(s) regulating the expression of embryonic and fetal human globin genes, as well as for screening of new differentiation-inducing compounds. A stable cell line where reporter genes encoding green EGFP and far-red fluorescent protein red-FP are placed under the control of the human γ-globin or β-globin promoters respectively was used (see Vadolas et al, Hum. Mol. Genet. 2004, 13, 2, 223-233 for details). The modified 3-cluster also contains the upstream regulatory region called LCR. This cell line grows in suspension at 37° C. and 5% CO2 in humidified atmosphere in the following medium: DMEM, 10% foetal bovine serum, glutamine and antibiotics (penicillin and streptomycin);
The assay procedures is as follows: • Single concentration compounds or serially diluted samples are transferred to an empty assay plates by a spotter (ATS-100, EDC Biosystems, USA) in order to have a final concentration of DMSO of 0.25% in 50 μL of cell culture. Source plats contains compounds dissolved in 100% DMSO • Black, transparent bottom, 384 wells, tissue culture treated plates are used as assay plates. • Assay plates containing spotted compounds are filled with a suspension of cell in the described assay medium. The final cell concentration is of 1000 cells per well. • Cells are incubated in humidified atmosphere, 37° C.-5% CO2, for 60 hours • Cell nuclei are stained by adding 10 ul (6 μM; 1 μM final) Hoechst 33342 (Life Technologies, USA) • The cell associated intensity is read by a plate based cytometer (ACUMEN explorer, TTP Labtech, UK) • The nuclei count is used to assess the cell proliferation/death and to normalize the total EGFP/RFP intensity. HbF Activation Assay in Human Cell Line K562
The compounds of the invention were tested in the HbF activation assay on K562, as model system for screening of potential inducers of fetal hemoglobin.

Experiment [3] concerns HDAC in Hela cells. Description: HDAC Hela Cell Based assay.

T1 sequence (Q13547 whole entry): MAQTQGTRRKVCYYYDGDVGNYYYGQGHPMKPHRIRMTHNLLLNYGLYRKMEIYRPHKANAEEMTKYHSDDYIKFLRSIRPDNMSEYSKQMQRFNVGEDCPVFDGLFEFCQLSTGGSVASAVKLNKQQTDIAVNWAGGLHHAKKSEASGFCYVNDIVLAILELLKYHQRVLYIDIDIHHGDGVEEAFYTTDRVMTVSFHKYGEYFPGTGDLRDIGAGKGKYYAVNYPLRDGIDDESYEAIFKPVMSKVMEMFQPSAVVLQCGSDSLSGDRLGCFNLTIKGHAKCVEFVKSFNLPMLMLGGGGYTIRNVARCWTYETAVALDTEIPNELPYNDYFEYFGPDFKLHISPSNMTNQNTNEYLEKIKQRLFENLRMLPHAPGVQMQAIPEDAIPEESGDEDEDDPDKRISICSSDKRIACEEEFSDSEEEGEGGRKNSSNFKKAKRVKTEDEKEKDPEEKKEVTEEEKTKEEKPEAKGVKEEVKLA

In the case of `CCC(=O)CCCCC[C@H](NC(=O)C1CCN(C)CC1)c1nnc(-c2cc3ccccc3nc2OC)o1` [Compound 47, (S)-N-(1-(5-(2-methoxyquinolin-3-yl)-1,3,4-oxadiazol-2-yl)-7-oxononyl)-1-methylpiperidine-4-carboxamide], the results for the IC50 in experiment [1] and in experiment [3] were less than 100 nM and 100 to 1000 nM, respectively. The EC50 in experiment [2] is 100 to 1000 nM.
Regarding `CCC(=O)CCCCC[C@H](NC(=O)C(=O)N(C)C)c1nnc(-c2cc3ccccc3nc2OC)o1` [Compound 45, (S)-N1-(1-(5-(2-methoxyquinolin-3-yl)-1,3,4-oxadiazol-2-yl)-7-oxononyl)-N2,N2-dimethyloxalamide], the IC50 in experiment [1] is less than 100 nM; in experiment [3], 100 to 1000 nM. This compound also yielded an EC50 in experiment [2] of more than 1000 nM.
In the case of `CCC(=O)CCCCC[C@H](NC(=O)Cn1cnc2ccccc21)c1ncc(-c2cc3ccccc3nc2OC)o1` [Compound 97, (S)-2-(1H-benzo[d]imidazol-1-yl)-N-(1-(5-(2-methoxyquinolin-3-yl)oxazol-2-yl)-7-oxononyl)acetamide], the IC50 in experiment [1] is less than 100 nM; in experiment [3] it was 100 to 1000 nM. Further, in experiment [2], the EC50 is more than 1000 nM.
Take `CCC(=O)CCCCC[C@H](NC(=O)CCN(C)C)c1ncc(-c2ccccc2)o1` [Compound 7, (S)-3-(dimethylamino)-N-(7-oxo-1-(5-phenyloxazol-2-yl)nonyl)propanamide]: the concentration for half-maximal inhibition (IC50) in experiment [1] is less than 100 nM; in experiment [3], more than 1000 nM. In experiment [2], this compound had an EC50 of more than 1000 nM.
In the case of `CCC(=O)CCCCC[C@H](NC(=O)C1CN(C)C1)c1ncc(-c2ccc(-c3ccnn3C)cc2)o1` [Compound 54, (S)-1-methyl-N-(1-(5-(4-(1-methyl-1H-pyrazol-5-yl)phenyl)oxazol-2-yl)-7-oxononyl)azetidine-3-carboxamide], the figures for the IC50 in experiment [1] and in experiment [3] were less than 100 nM and 100 to 1000 nM, respectively. In addition, the EC50 in experiment [2] was more than 1000 nM.
Turning to `CCC(=O)CCCCC[C@H](NC(=O)C1CN(C(C)=O)C1)c1ncc(-c2ccc(-n3cccn3)cc2)o1` [Compound 62, (S)-N-(1-(5-(4-(1H-pyrazol-1-yl)phenyl)oxazol-2-yl)-7-oxononyl)-1-acetylazetidine-3-carboxamide], the IC50 in experiment [1] is less than 100 nM; in experiment [3], 100 to 1000 nM. The compound also registered an EC50 in experiment [2] of more than 1000 nM.
In the same order, the values of `CCC(=O)CCCCC[C@H](NC(=O)[C@@H]1CC(F)(F)CN1C)c1ncc(-c2cc3ccccc3nc2OC)o1` [Compound 58, (S)-4,4-difluoro-N-((S)-1-(5-(2-methoxyquinolin-3-yl)oxazol-2-yl)-7-oxononyl)-1-methylpyrrolidine-2-carboxamide] are less than 100 nM, 100 to 1000 nM and more than 1000 nM.
For the compound `CCC(=O)CCCCC[C@H](NC(=O)Cc1c[nH]cn1)c1ncc(-c2cc3ccccc3nc2OC)o1` [Compound 73, (S)-2-(1H-imidazol-4-yl)-N-(1-(5-(2-methoxyquinolin-3-yl)oxazol-2-yl)-7-oxononyl)acetamide], the IC50 in experiment [1] is less than 100 nM; in experiment [3], 100 to 1000 nM. In experiment [2], the EC50 is more than 1000 nM.
As for `CCC(=O)CCCCC[C@H](NC(=O)c1cncs1)c1ncc(-c2ccccc2)o1` [Compound 6, (S)-N-(7-oxo-1-(5-phenyloxazol-2-yl)nonyl)thiazole-5-carboxamide], the results for the IC50 in experiment [1] and in experiment [3] were less than 100 nM and more than 1000 nM, respectively. The compound also registered an EC50 in experiment [2] of more than 1000 nM.
For the compound `CCC(=O)CCCCC[C@H](NC(=O)C1CN(C(C)=O)C1)c1ncc(-c2cc3ccccc3nc2OC)o1` [Compound 55, (S)-1-acetyl-N-(1-(5-(2-methoxyquinolin-3-yl)oxazol-2-yl)-7-oxononyl)azetidine-3-carboxamide], the IC50 in experiment [1] was less than 100 nM; in experiment [3] it was 100 to 1000 nM. The EC50 in experiment [2] was more than 1000 nM.
With `CCC(=O)CCCCC[C@H](NC(=O)C1CCCN(C)C1)c1ncc(-c2cc3ccccc3nc2OC)o1` (stereo partly drawn) [Compound 104, N-((S)-1-(5-(2-methoxyquinolin-3-yl)oxazol-2-yl)-7-oxononyl)-1-methylpiperidine-3-carboxamide], the IC50 in experiment [1] and in experiment [3] was less than 100 nM in each case. In experiment [2], this compound registered an EC50 of 100 to 1000 nM.
Turning to `CCC(=O)CCCCC[C@H](NC(=O)C(=O)N1CCOCC1)c1ncc(-c2cc3ccccc3nc2OC)o1` [Compound 69, (S)-N-(1-(5-(2-methoxyquinolin-3-yl)oxazol-2-yl)-7-oxononyl)-2-morpholino-2-oxoacetamide], the IC50 in experiment [1] was less than 100 nM; in experiment [3] it was 100 to 1000 nM. In experiment [2], this compound yielded an EC50 of more than 1000 nM.
For the compound `CCC(=O)CCCCC[C@H](NC(=O)C1CN(C)C1)c1ncc(-c2ccc(-c3ccn[nH]3)cc2)o1` [Compound 53, (S)-N-(1-(5-(4-(1H-pyrazol-5-yl)phenyl)oxazol-2-yl)-7-oxononyl)-1-methylazetidine-3-carboxamide], the half-inhibitory concentration (IC50) was less than 100 nM in experiment [1] and 100 to 1000 nM in experiment [3]. The EC50 in experiment [2] is more than 1000 nM.
Turning to `CCC(=O)CCCCC[C@H](NC(=O)[C@H](CC(F)(F)F)N(C)C)c1ncc(-c2cc3ccccc3nc2OC)o1` [Compound 63, (S)-2-(dimethylamino)-4,4,4-trifluoro-N-((S)-1-(5-(2-methoxyquinolin-3-yl)oxazol-2-yl)-7-oxononyl)butanamide], the IC50 in experiment [1] was 100 to 1000 nM; in experiment [3], more than 1000 nM. Also, the EC50 in experiment [2] is more than 1000 nM.
For the compound `CCC(=O)CCCCC[C@H](NC(=O)CN1CCN(C)CC1)c1ncc(-c2ccccc2)o1` [Compound 15, (S)-2-(4-methylpiperazin-1-yl)-N-(7-oxo-1-(5-phenyloxazol-2-yl)nonyl)acetamide], the concentration for half-maximal inhibition (IC50) in experiment [1] is 100 to 1000 nM; in experiment [3] it was more than 1000 nM. This compound had an EC50 in experiment [2] of more than 1000 nM.
As to `CCC(=O)CCCCC[C@H](NC(=O)c1cc(C)nn1C)c1ncc(-c2cc3ccccc3nc2OC)o1` [Compound 96, (S)-N-(1-(5-(2-methoxyquinolin-3-yl)oxazol-2-yl)-7-oxononyl)-1,3-dimethyl-1H-pyrazole-5-carboxamide], the IC50 is less than 100 nM in experiment [1] and 100 to 1000 nM in experiment [3]. The EC50 in experiment [2] is more than 1000 nM.
In the same order, the values of `CCC(=O)CCCCC[C@H](NC(=O)C(=O)N(C)C)c1ncc(-c2cc3ccccc3nc2OC)o1` [Compound 36, (S)-N1-(1-(5-(2-methoxyquinolin-3-yl)oxazol-2-yl)-7-oxononyl)-N2,N2-dimethyloxalamide] are 100 to 1000 nM, 100 to 1000 nM and more than 1000 nM.
As for `CCC(=O)CCCCC[C@H](NC(=O)CCn1c(CC)nc2ccccc21)c1nnc(-c2cc3ccccc3nc2OC)o1` [Compound 50, (S)-3-(2-ethyl-1H-benzo[d]imidazol-1-yl)-N-(1-(5-(2-methoxyquinolin-3-yl)-1,3,4-oxadiazol-2-yl)-7-oxononyl)propanamide], the results for the IC50 in experiment [1] and in experiment [3] were less than 100 nM and 100 to 1000 nM, respectively. This compound displayed an EC50 in experiment [2] of 100 to 1000 nM.

Values taken from patent publication US9371295B2, “Compounds for use in the treatment of disorders that are ameliorated by inhibition of HDAC” (IRBM—Science Park S.p.A., priority 2012, dated 2016).
